Measured values taken from patent US20110105472A1, “Diaminopyrimidines as crop protection agents” (Bayer CropScience AG, priority 2008, published 2011).

Test: logP by LC-MS, method [b], acidic range pH 2.7
Format: physicochemical
Details: not given
In the case of `COC(=O)Nc1cccc(Nc2ncc(Cl)c(NC3CCC3)n2)c1` [Compound 139], the log p is reported as 1.73.

Same assay, conditions: pH 2.7
For `COc1cc(Nc2ncc(Br)c(NC3CCC3)n2)cc(OC)c1` [Compound 53], the log p was 2.12[b].
For `O=S(=O)(c1ccc(Nc2ncc(Br)c(NC3CCC3)n2)cc1)C(F)(F)F` [compound 193], the log p was 4.32[b].
With `CC(C)(C)NC(=O)c1ccc(Nc2ncc(Br)c(NC3CCC3)n2)cc1` [Compound 102] the log p was 2.46[b].
With `CCN(C(C)=O)c1ccc(Nc2ncc(Br)c(NC3CCC3)n2)cc1` [Compound 93] the log p was 1.92[b].
For `Clc1cc(Cl)cc(Nc2ncc(Br)c(NC3CCC3)n2)c1` [Compound 76], the log p was 4.98[b].
For `COc1cccc(Nc2ncc(Cl)c(NC3CCC3)n2)c1` [Compound 109], the log p was 2.06[b].
For `N#CCc1ccc(Nc2ncc(Cl)c(NC3CCC3)n2)cc1` [Compound 233], the log p was 1.88[b].
With `Brc1ccc(Nc2ncc(Br)c(NC3CCC3)n2)cc1` [compound 67] the log p was 3.18[b].
In the case of `CCCCC(=O)Oc1ccc(Nc2ncc(Br)c(NC3CCC3)n2)cc1` [compound 161], the log p is reported as 4.32[b].
With `CC(C)(CF)C(=O)Nc1cccc(Nc2ncc(Br)c(NC3CCC3)n2)c1` [Compound 166] the log p was 2.09[b].
With `CC(C)(C)c1cccc(Nc2ncc(Br)c(NC3CCC3)n2)c1` [Compound 254] the log p was 3.67[b].
With `CC(C)(CCl)C(=O)Nc1ccc(Nc2ncc(Br)c(NC3CCC3)n2)cc1` [Compound 165] the log p was 2.16[b].
With `Cc1cccc(Nc2ncc(Br)c(NC3CCC3)n2)c1` [Compound 224] the log p was 2.55[b].
For `N#Cc1ccc(Nc2ncc(Cl)c(NC3CCC3)n2)cc1` [Compound 111], the log p was 2.77[b].
In the case of `CC(C)(C)C(=O)Nc1ccc(Nc2ncc(Br)c(NC3CCC3)n2)cc1` [Compound 92], the log p is reported as 2.02[b].
In the case of `O=C(Nc1cccc(Nc2ncc(Br)c(NC3CCC3)n2)c1)Oc1ccccc1` [compound 199], the log p is reported as 2.51[b].
For `Brc1cnc(Nc2ccc(-c3cscn3)cc2)nc1NC1CCC1` [Compound 74], the log p was 2.26[b].
With `COCCNCc1ccc(Nc2ncc(Br)c(NC3CCC3)n2)cc1` [Compound 176] the log p was 1.13[b].
In the case of `NS(=O)(=O)c1cc(Nc2ncc(Br)c(NC3CCC3)n2)ccc1Cl` [Compound 79], the log p is reported as 2.02[b].
For `C=CCNC(=O)c1ccc(Nc2ncc(Br)c(NC3CCC3)n2)cc1` [Compound 83], the log p was 1.99[b].
In the case of `O=C(Nc1ccc(Nc2ncc(Cl)c(NC3CCC3)n2)cc1)C(F)(F)F` [compound 121], the log p is reported as 2.09[b].
With `O=c1oc2ccc(Nc3ncc(Br)c(NC4CCC4)n3)cc2s1` [compound 11] the log p was 2.63[b].
In the case of `O=CNc1ccc(Nc2ncc(Br)c(NC3CCC3)n2)cc1` [Compound 152], the log p is reported as 1.47[b].
With `O=C1OCCN1c1ccc(Nc2ncc(Br)c(NC3CCC3)n2)cc1` [Compound 173] the log p was 1.62[b].
With `Cc1ccccc1Nc1ncc(Br)c(NC2CCC2)n1` [Compound 60] the log p was 1.87[b].
With `CC(=O)c1cccc(Nc2ncc(C(F)(F)F)c(NC3CCC3)n2)c1` [Compound 227] the log p was 3.24[b].
With `FC(F)(F)Oc1ccc(Nc2ncc(Br)c(NC3CCC3)n2)cc1` [compound 183] the log p was 3.73[b].
In the case of `CN(C)S(=O)(=O)c1ccc(Nc2ncc(Cl)c(NC3CCC3)n2)cc1` [compound 114], the log p is reported as 2.53[b].
In the case of `Fc1ccc(Nc2ncc(Br)c(NC3CCC3)n2)cc1` [Compound 49], the log p is reported as 2.33[b].
With `COC(=O)Nc1ccc(Nc2ncc(Cl)c(NC3CCC3)n2)cc1` [Compound 135] the log p was 1.61[b].
In the case of `FC(F)Sc1ccc(Nc2ncc(Br)c(NC3CCC3)n2)cc1` [Compound 202], the log p is reported as 3.41[b].
With `N#CCc1cccc(Nc2ncc(Br)c(NC3CCC3)n2)c1` [Compound 220] the log p was 2.12[b].
With `FC1(F)Oc2ccc(Nc3ncc(Br)c(NC4CCC4)n3)cc2OC1(F)F` [Compound 18] the log p was 4.56[b].
For `CC(=O)Nc1cc(Nc2ncc(Br)c(NC3CCC3)n2)ccc1C` [Compound 200], the log p was 1.58[b].
With `CC(C)(C)c1cccc(Nc2ncc(Cl)c(NC3CCC3)n2)c1` [compound 255] the log p was 3.26[b].
